Biological target: T1, Neuromedin-K receptor (Homo sapiens, UniProt P29371)
T1 sequence (P29371 whole entry): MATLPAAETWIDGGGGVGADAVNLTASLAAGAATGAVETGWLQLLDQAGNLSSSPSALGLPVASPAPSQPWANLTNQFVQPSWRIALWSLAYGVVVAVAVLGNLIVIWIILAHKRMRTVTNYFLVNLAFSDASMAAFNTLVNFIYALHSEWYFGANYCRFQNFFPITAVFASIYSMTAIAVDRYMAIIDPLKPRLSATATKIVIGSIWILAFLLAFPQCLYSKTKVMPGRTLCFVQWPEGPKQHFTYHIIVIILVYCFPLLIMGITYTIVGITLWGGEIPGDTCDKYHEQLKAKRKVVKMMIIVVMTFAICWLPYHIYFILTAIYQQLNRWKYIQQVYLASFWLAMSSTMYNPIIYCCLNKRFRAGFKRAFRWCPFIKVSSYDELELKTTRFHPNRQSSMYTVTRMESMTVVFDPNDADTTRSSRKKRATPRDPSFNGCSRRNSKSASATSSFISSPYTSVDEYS
Test: [3H]SR142801 Competition Binding Assay: hNK3 receptor binding experiment were performed using [3H]SR142801 (Catalog No. TRK1035, specific activity: 74.0 Ci/mmol, Amersham, GE Healthcare UK limited, Buckinghamshire, UK) and membrane isolated from HEK293 cells transiently expressing recombinant human NK3 receptor. After thawing, the membrane homogenates were centrifuged at 48,000×g for […] at 4° C., the pellets were resuspended in the 50 mM Tris-HCl, 4 mM MnCl2, 1 μM phosphoramidon, 0.1% BSA binding buffer at pH 7.4 to a final assay concentration of 5 μg protein/well. For inhibition experiments, membranes were incubated with [3H]SR142801 at a concentration equal to KD value of radioligand and 10 concentrations of the inhibitory compound (0.0003-10 μM) (in a total reaction volume of 500 μl) for 75 min at room temperature (RT). At the end of the incubation, membranes were filtered onto unitfilter (96-well white microplate with bonded GF/C filter preincubated 1 h in 0.3% PEI+0.3% BSA, Packard BioScience, Meriden, Conn.) with a Filtermate 196 harvester (Packard BioScience) and washed 4 times with ice-cold 50 mM Tris-HCl, pH 7.4 buffer. Nonspecific binding was measured in the presence of 10 μM SB222200 for both radioligands. […]
Type: cell membranes

| Compound | Ki |
| --- | --- |
| CCN(C(=O)Oc1ccc(F)cc1)[C@@H]1CN(C(=O)C2CCN(c3ccc(C(F)(F)F)cn3)CC2)C[C@H]1c1ccc(F)c(F)c1 | 9 nM |
| CCN(C(=O)Oc1ccc(F)cc1)[C@@H]1CN(C(=O)C2CCN(c3ccc(OC(C)=O)cn3)CC2)C[C@H]1c1ccc(Cl)cc1 | 6 nM |

Reference: ChEMBL document CHEMBL3886745, “Pyrrolidine compounds” (2016)
